# Results published in US20160229835A1, “NOVEL PYRIDYLOXYACETYL TETRAHYDROISOQUINOLINE COMPOUNDS USEFUL AS NAMPT INHIBITORS” (ELI LILLY AND COMPANY, priority 2013, published 2016).
# How the values were obtained:
# [1] = test system: A2780 cells; assay: A2780 Proliferation Assay ±NAM (Nicotinamide); format: cell-based; settings: Homo sapiens, A2780, 72 h, 10 mM nicotinamide added to the growth medium, read-out: IC50 (proliferation of A2780 cells with 10 mM nicotinamide)
# Protocol: The purpose of this assay is to measure the ability of a compound to inhibit proliferation of A2780 cells (the NCI-DCTD Tumor repository) dependent on the NAMPT-mediated NAD^+ formation in the presence or absence of higher concentrations of NAM (10 mM) in vitro. The A2780 cell proliferation assay uses assay-ready frozen cells. To prepare assay-ready frozen A2780 cells, A2780 cells, an ovarian cancer cell line, are cultured in growth media containing RPMI 1640 (Gibco 30-2001) supplemented with 10% FBS, in T-150 flasks for 3-4 days. Cells are then treated with 4 mL of 0.25% (v/v) trypsin for 1 minute (Hyclone SH30042). Trypsin-treated cells are then diluted with 10 mL of growth media, and the cell slurry is gently mixed and then decanted to a centrifuge tube. Cells are counted and then pelleted by centrifugation at 1400 rpm for 5 minutes. After centrifugation the supernatant is removed and the cell pellets are re-suspended in GIBCO® RECOVERY™ Cell Culture Freezing Medium (Invitrogen 12648-010) at 2-5×10^6 cells/mL and then aliquoted at 1 mL volumes into cryovials. Cryovials are stored initially at −80° C. for 16 hours, and then transferred to liquid nitrogen for long term storage.
# One day before the planned initiation of compound treatment portion of the assay, one vial of assay ready frozen cells is thawed, and the cells are washed with 50 mL of growth medium. Cells are counted and then diluted to 2.8×10^4 cells/mL and then plated at a rate of 2500 cells/well (90 μL per well) to BD Poly-D-Lysine, 96 well black plates (BD Biocoat 35-4640). Plates are then covered and incubated overnight under 5% CO2 at 37° C. The next day in a separate plate (V bottom Nunc 249946), a ten-point compound dilution series for each compound is prepared in growth media containing 2% DMSO (v/v, 0.2% final) with or without 100 mM NAM (10 mM final). Then 10 μL of compounds after a ten-point series dilution from either 2 or 0.1 μM (depending potency of each compound) to 50 pM or 5 pM (final) are added to the wells of the cell plates. Cell plates are covered and incubated for 72 hours under 5% CO2 at 37° C.
# On the day of the viability assessment, one vial of GF-AFC substrate (CELL TITER-FLUOR™ Cell Viability Assay Kit, Promega G6081) is vortexed and the substrate is transferred to one vial of thawed CELL TITER-FLUOR™ Assay Buffer. The resulting CELL TITER-FLUOR™ reagent is then vortexed well to thoroughly dissolve the substrate. The CELL TITER-FLUOR™ reagent is then diluted (1:2) in growth medium and 50 μL of diluted CELL TITER-FLUOR™ reagent is added to each well of the cell plate. The cell plate is covered and incubated under 5% CO2 at 37° C. for 1-3 hours. Finally the cell plates are removed from the incubator and the well fluorescence is measured on an Envision® Multilabel Reader (Perkin Elmer, λeX 355/λem 495). Fluorescence from compound treated wells is compared to the no cell and no compound treatment control wells to calculate percent inhibition. The percent inhibition and ten-point compound concentration data is fit to a four-parameter logistic equation using ACTIVITYBASE 4.0 Equation 205. Each compound is tested 2-4 times in this assay.
# [2] = test system: H1155 tumor model; assay: Efficacy in Xenograft Tumor Models, NCI-H1155; format: in vivo; settings: nude mice, 4-day-on and 3-day-off schedule for 17 days
# Protocol: The purpose of this assay is to measure reduction in tumor volume in response to test compound administration. A2780 and NCI-H1155 (NSCLC) cells are grown as described above for IVTI studies. Cells are harvested and injected subcutaneously onto the rear flank of nude mice. When tumors are established (7-21 days after implant), animals are randomized and grouped into control and test groups (7 animals/group). The test compound is formulated in 20% of CAPTISOL® and 25 mM of phosphate buffer, pH 2. Test compound and vehicle (20% of CAPTISOL® and 25 mM of phosphate buffer, pH 2 without compound) are administered by oral gavage. Tumor response is determined by tumor volume measurement (caliper) performed twice a week during the course of treatment and reported as percent of tumor volume of each treatment group divided by tumor volume of the vehicle control group. […] For example, Example 1 in H1155 tumor model, when dosed at 10 mg/kg (twice a day (BID) on a 4-day-on and 3-day-off schedule for 17 days, a T/C of 5.5 (P value<0.001 based on T-test) is achieved; when dosed at 20 mg/kg on the same schedule, a T/C of −81.1 (P value<0.001 based on T-test) is achieved. Example 2 in H1155 tumor model, when dosed at 8 mg/kg (twice a day (BID) on a 4-day-on and 3-day-off schedule for 17 days, a T/C of 5.2 (P value<0.001 based on T-test) is achieved; when dosed at 16 mg/kg on the same schedule, a T/C of −82.7 (P value<0.001 based on T-test) is achieved. Example 1 in A2780 tumor model, when dosed at 10 mg/kg (twice a day (BID) on a 4-day-on and 3-day-off schedule for 17 days, a T/C of 41.7 (P value<0.007 based on T-test) is achieved; when dosed at 20 mg/kg on the same schedule, a T/C of 2.4 (P value<0.001 based on T-test) is achieved.
Compound,IC50 [1],T/C (tumor volume of treatment group divided by vehicle control group) ([2]; 10 mg/kg BID oral),T/C (tumor volume of treatment group divided by vehicle control group) ([2]; 20 mg/kg BID oral),T/C (tumor volume of treatment group divided by vehicle control group) ([2]; 8 mg/kg BID oral),T/C (tumor volume of treatment group divided by vehicle control group) ([2]; 16 mg/kg BID oral)
"CC(C)(O)CS(=O)(=O)Nc1ccc2c(c1)CCN(C(=O)COc1cccnc1)C2 [Example 1, 2-Hydroxy-2-methyl-N-[2-[2-(3-pyridyloxy)acetyl]-3,4-dihydro-1H-isoquinolin-6-yl]propane-1-sulfonamide]",> 100 nM,5.5%,−81.1%,–,–
"COCCS(=O)(=O)Nc1ccc2c(c1)CCN(C(=O)COc1cccnc1)C2 [Example 2, 2-Methoxy-N-[2-[2-(3-pyridyloxy)acetyl]-3,4-dihydro-1H-isoquinolin-6-yl]ethanesulfonamide]",> 100 nM,–,–,5.2%,−82.7%
